Results: US12336536B2, “Method for controlling herbicide resistant or tolerant weeds” (BASF Agro B.V., priority 2015, dated 2025)

Key:
MATIN = test: Greenhouse test, solo and combination, post-emergence, 20 DAT; type: in vivo, Matricaria inodora
Experimental: (§1) The test plants have been seeded, separately for each species, in plastic containers in sandy loamy soil containing 5% of organic matter.
(§2) For the post-emergence treatment, the plants were first grown to the 2 leaf station (GS 12) and applied at GS 12-19 depending on the species. The herbicidal compositions were suspended or emulsified in water as distribution medium and sprayed using finely distributing nozzles.
(§3) The plants have been cultivated due to their individual requirements at 10-25° C. and 20-35° C. The plants were irrigated due to their necessity.
(§4) The racemic mixture (±)-2-exo-(2-Methylbenzyloxy)-1-methyl-4-isopropyl-7-oxabicyclo[2.2.1]heptane was used as herbicide A and formulated as emulsifiable concentrate having an active ingredient concentration of 750 g/l.
(§5) Cyhalofop-butyl (herbicide B.5) was used as an emulsifiable concentrate (EC) formulation having an active ingredient concentration of 200 g/l.
(§6) Metsulfuron-methyl (herbicide B.53) was used as a water soluble granule (SG) formulation having an active ingredient concentration of 20%.
(§7) Bispyribac-sodium (herbicide B.23) was used as a soluble concentrate (SL) formulation having an active ingredient concentration of 408 g/l.
(§8) Quizalofop-P-ethyl (herbicide B.217) was used as a suspension concentrate (SC) formulation having an active ingredient concentration of 106 g/l.
(§9) In the following experiments, the herbicidal activity for the individual herbicide compounds (solo and mixture applications) was assessed 20 days after treatment (DAT).
(§10) The evaluation for the damage on undesired weeds caused by the chemical compositions was carried out using a scale from 0 to 100%, compared to the untreated control plants. Here, 0 means no damage and 100 means complete destruction of the plants.
(§11) The plants used in the greenhouse experiments belonged to the following species:
(§12) E=X+Y−(X·Y/100) • where X=effect in percent using herbicide A at an application rate a; • Y=effect in percent using herbicide B at application rate b; • E=expected effect (in %) of herbicide A+herbicide B at application rates a+b.
(§13) The value E corresponds to the effect (plant damage or injury) which is to be expected if the activity of the individual compounds is additive. If the observed effect is higher than the value E calculated according to the Colby equation, a synergistic effect is present.
(§14) Tables 3 to 6 below relate the herbicidal activity, in greenhouse trials, of the individual actives and the combination applied at different rates and ratios, in post-emergence application at 20 days after treatment (DAT).

[1] = test system: ryegrass (LOLMU) biotypes; test: Greenhouse test, control of resistant weed biotypes, post-emergence, ryegrass; type: in vivo, Lolium multiflorum; details: for Herbicidal activity: post-emergence, scale 0 to 100
Experimental: (§15) The herbicidal activity of herbicide A on resistant weed biotypes was tested in comparison with certain commercial herbicides by the following greenhouse experiments:
(§16) The culture containers used were plastic flowerpots containing loamy sand with approximately 3.0% of humus as the substrate. The seeds of the test plants were sown separately for each species. Six blackgrass (ALOMY) (10-103, 10-170, 09-591, 10-123, 11-215, 11-146) and six ryeg rass (LOLMU) (12-166, 12-143, 12-165, 12-307, 13-304, 13-313) biotypes with varying degrees of resistance towards a range of modes of action according to the HRAC (Herbicide Resistance Action Committee) classification on mode of action 2010 (see e.g http://www.hracglobal.com/pages/classificationofherbicidesiteofaction.aspx) were tested alongside two non-resistant biotypes (14-116 and 13-243), see Tables 1 and 2 below.
(§17) For the post-emergence treatment, the test plants were first grown to a height of 3 to 15 cm, depending on the plant habit, and only then treated with the active ingredients which had been suspended or emulsified in water. For this purpose, the test plants were either sown directly and grown in the same containers, or they were first grown separately as seedlings and transplanted into the test containers a few days prior to treatment.
(§18) Depending on the species, the plants were kept at 10-25° C. or 20-35° C. The test period extended over 2 to 4 weeks. During this time, the plants were tended, and their response to the individual treatments was evaluated.
(§19) The racemic mixture (±)-2-exo-(2-Methylbenzyloxy)-1-methyl-4-isopropyl-7-oxabicyclo[2.2.1]heptane was used as herbicide A and formulated as emulsifiable concentrates with an active ingredient concentration of 50 g/l, 100 g/l or 750 g/l respectively.
(§20) Flufenacet was used as a commercial concentrated solution formulation having an active ingredient concentration of 500 g/l (Cadou).
(§21) Imazamox was used as a water dispersible granule (70% WG).
(§22) Evaluation of the herbicidal activity was carried out using a scale from 0 to 100. 100 means complete destruction of at least the aerial moieties, and 0 means no damage, or normal course of growth. A good herbicidal activity is given at values of at least 70 and a very good herbicidal activity is given at values of at least 85.

PAPRH = test: Greenhouse test, solo and combination, post-emergence, 20 DAT; type: in vivo, Papaver rhoeas
Experimental: as §1, §2, §3, §4, §5, §6, §7, §8, §9, §10, §11, §12, §13, §14

[2] = test system: blackgrass (ALOMY) biotypes; test: Greenhouse test, control of resistant weed biotypes, post-emergence, blackgrass; type: in vivo, Alopecurus myosuroides; details: for Herbicidal activity: post-emergence, scale 0 to 100
Experimental: as §15, §16, §17, §18, §19, §20, §21, §22

LOLRI = test: Greenhouse test, solo and combination, post-emergence, 20 DAT; type: in vivo, Lolium rigidum
Experimental: as §1, §2, §3, §4, §5, §6, §7, §8, §9, §10, §11, §12, §13, §14

BROST = test: as above; type: in vivo, Bromus sterilis
Experimental: as §1, §2, §3, §4, §5, §6, §7, §8, §9, §10, §11, §12, §13, §14

BRSNW = test: as above; type: in vivo, Brassica napus
Experimental: as §1, §2, §3, §4, §5, §6, §7, §8, §9, §10, §11, §12, §13, §14

Question: Which results are given for “(±)-2-exo-(2-Methylbenzyloxy)-1-methyl-4-isopropyl-7-oxabicyclo[2.2.1]heptane [Herbicide A]”?
Answer: Herbicidal activity (MATIN; solo application 62.5 g ai/ha): 0%; Herbicidal activity (MATIN; solo application 125 g ai/ha): 0%; Herbicidal activity (MATIN; solo application 250 g ai/ha): 0%; Herbicidal activity (MATIN; solo application 500 g ai/ha): 25%; Herbicidal activity ([1]; BT 12-143, resistant HRAC group A, B, C, E, K, 125 g ai/ha): 80; Herbicidal activity ([1]; BT 12-143, resistant HRAC group A, B, C, E, K, 250 g ai/ha): 95; Herbicidal activity ([1]; BT 12-165, resistant HRAC group A, B, E, K, 125 g ai/ha): 95; Herbicidal activity ([1]; BT 12-165, resistant HRAC group A, B, E, K, 250 g ai/ha): 100; Herbicidal activity ([1]; BT 12-166, resistant HRAC group A, B, E, K, 125 g ai/ha): 90; Herbicidal activity ([1]; BT 12-166, resistant HRAC group A, B, E, K, 250 g ai/ha): 90; Herbicidal activity ([1]; BT 12-307, resistant HRAC group B, F, K, O, 125 g ai/ha): 70; Herbicidal activity ([1]; BT 12-307, resistant HRAC group B, F, K, O, 250 g ai/ha): 90; Herbicidal activity ([1]; BT 13-243, Sensitive standard, 125 g ai/ha): 75; Herbicidal activity ([1]; BT 13-243, Sensitive standard, 250 g ai/ha): 90; Herbicidal activity ([1]; BT 13-304, resistant HRAC group A, B, E, K, 125 g ai/ha): 85; Herbicidal activity ([1]; BT 13-304, resistant HRAC group A, B, E, K, 250 g ai/ha): 95; Herbicidal activity ([1]; BT 13-313, resistant HRAC group A, B, C, E, K, 125 g ai/ha): 70; Herbicidal activity ([1]; BT 13-313, resistant HRAC group A, B, C, E, K, 250 g ai/ha): 95; herbicidal activity (summary in words) ([1]; post-emergence treatment, various biotypes of ryegrass (LOLMU) with varying degrees of resistance): very good herbicidal activity (a very good herbicidal activity is given at values of at least 85); Herbicidal activity (PAPRH; solo application 62.5 g ai/ha): 0%; Herbicidal activity (PAPRH; solo application 250 g ai/ha): 40%; Herbicidal activity (PAPRH; solo application 500 g ai/ha): 60%; Herbicidal activity ([2]; BT 09-591, resistant HRAC group A, B, K, 125 g ai/ha): 80; Herbicidal activity ([2]; BT 09-591, resistant HRAC group A, B, K, 250 g ai/ha): 95; Herbicidal activity ([2]; BT 10-103, resistant HRAC group A, B, K, 125 g ai/ha): 80; Herbicidal activity ([2]; BT 10-103, resistant HRAC group A, B, K, 250 g ai/ha): 95; Herbicidal activity ([2]; BT 10-123, resistant HRAC group A, B, C, 125 g ai/ha): 85; Herbicidal activity ([2]; BT 10-123, resistant HRAC group A, B, C, 250 g ai/ha): 90; Herbicidal activity ([2]; BT 10-170, resistant HRAC group A, B, K, 125 g ai/ha): 85; Herbicidal activity ([2]; BT 10-170, resistant HRAC group A, B, K, 250 g ai/ha): 90; Herbicidal activity ([2]; BT 11-146, resistant HRAC group K, 125 g ai/ha): 90; Herbicidal activity ([2]; BT 11-146, resistant HRAC group K, 250 g ai/ha): 95; Herbicidal activity ([2]; BT 11-215, resistant HRAC group A, B, C, E, K, 125 g ai/ha): 80; Herbicidal activity ([2]; BT 11-215, resistant HRAC group A, B, C, E, K, 250 g ai/ha): 95; Herbicidal activity ([2]; BT 14-116, Sensitive standard, 125 g ai/ha): 65; Herbicidal activity ([2]; BT 14-116, Sensitive standard, 250 g ai/ha): 100; herbicidal activity (summary in words) ([2]; post-emergence treatment, various biotypes of blackgrass (ALOMY) with varying degrees of resistance): very good herbicidal activity (a very good herbicidal activity is given at values of at least 85); Herbicidal activity (LOLRI; solo application 62.5 g ai/ha): 15%; Herbicidal activity (LOLRI; solo application 125 g ai/ha): 30%; Herbicidal activity (LOLRI; solo application 250 g ai/ha): 50%; Herbicidal activity (BROST; solo application 62.5 g ai/ha): 0%; Herbicidal activity (BROST; solo application 125 g ai/ha): 0%; Herbicidal activity (BROST; solo application 250 g ai/ha): 15%; Herbicidal activity (BROST; solo application 500 g ai/ha): 25%; Herbicidal activity (BRSNW; solo application 62.5 g ai/ha): 0%; Herbicidal activity (BRSNW; solo application 125 g ai/ha): 0%; Herbicidal activity (BRSNW; solo application 500 g ai/ha): 0%
